In patent US20260207604A1, “COMPOUND AND USE THEREOF” (ONQUALITY PHARMACEUTICALS CHINA LTD., priority 2022, published 2026):
Like-named read-outs stand apart in the source and are kept apart here.

Legend:
[1] = system: 5-FU-induced diarrhea model; assay: 5-FU-induced diarrhea model, 5-FU 1-day model; assay type: in vivo, Balb/c mice; details: 5-FU 175 mg/kg once a day, mice
Text: The 5-FU-induced diarrhea model was used as an experimental model of the present invention to evaluate the in vivo activity of the compounds.
Balb/c mice (20-25 g, 7-8 weeks old, Jihui) were acclimated for one week and then randomly assigned to 3 groups (n=10 per group): control group, 5-FU group, and CDK inhibitor group. The control group received the same vehicle as the CDK inhibitor group by oral gavage, followed by injection of the same vehicle as the 5-FU group. The 5-FU group received the same vehicle by oral gavage as the CDK inhibitor group, followed by 5-FU injection. The CDK inhibitor group received oral administration of the CDK inhibitor, followed by 5-FU injection. From day 1 to day 7, the severity of diarrhea was assessed for each mouse according to the diarrhea scoring system.
(§1) The diarrhea scoring system was based on the method by Akinobu Kurita (Cancer Chemother Pharmacol 2000; 46:211-20), Grade 0: normal stool; Grade 1: mild diarrhea, slightly soft stool and wet stool; Grade 2: moderate diarrhea, loose stool with slight perianal staining; Grade 3: severe diarrhea, loose watery stool with severe perianal staining.
The diarrhea relief rate (%) was calculated as follows: […]

[2] = system: MCF-7 human breast cancer cells; assay: Cell viability assay (CELLTITER-GLO); assay type: cell-based; details: MCF7, 168 h, MCF-7 cells, 7 days
Experimental: The cell viability of MCF-7 human breast cancer cells under standard culture conditions was assessed using the CELLTITER-GLO assay. MCF-7 cells were seeded at 3,000 cells per well in 96-well plates and incubated overnight in a CO2 incubator. The next day, serial dilutions of Compound 1 at various concentrations were added to the wells. The plates were returned to the incubator and cultured for 7 days. After 7 days, the plates were equilibrated at room temperature for 30 minutes. Subsequently, 100 μL of CELLTITER-GLO detection solution was added. The cells were mixed on an orbital shaker for 5 min and then incubated for additional 10 min. The plate was read with an ENVISION reader. Data were processed and analyzed to determine the IC50 values.

[3] = system: Irinotecan-induced diarrhea model; assay: Irinotecan-induced diarrhea model; assay type: in vivo, Balb/c mice; details: irinotecan 230 mg/kg once a day, 1 day, mice
Text: Irinotecan-induced diarrhea and/or constipation models were employed as additional in vivo experimental models to evaluate the activity of the compounds of the present application.
Balb/c mice (20-25 g, 7-8 weeks old, Jihui) were acclimated for one week and then randomly assigned to 3 groups (n=10 per group): control group, irinotecan group, and CDK inhibitor group. Control group: received the same vehicle as the CDK inhibitor group by oral gavage, followed by injection of the same vehicle as the irinotecan group; irinotecan group: received the same vehicle by oral gavage as the CDK inhibitor group, followed by injection of irinotecan; CDK inhibitor group: received oral administration of the CDK inhibitor, followed by injection of irinotecan.
In the irinotecan group, approximately 6 to 9 out of 10 mice developed diarrhea. From Day 1 to Day 7, the severity of diarrhea in each mouse was evaluated using the following scoring criteria:
as §1, with “staining. Calculate the diarrhea Relief rate of compound treatment. Relief rate (%)=(diarrhea score of irinotecan group−diarrhea score of CDK inhibitor group)/diarrhea score of irinotecan group×100%.” for “staining.”

[4] = target: CDK9/cyclin T (Homo sapiens, UniProt P50750); assay: KinaseProfile radiometric protein kinase assay, CDK9/cyclin T; assay type: biochemical
CDK9/cyclin T, sequence (P50750 whole entry): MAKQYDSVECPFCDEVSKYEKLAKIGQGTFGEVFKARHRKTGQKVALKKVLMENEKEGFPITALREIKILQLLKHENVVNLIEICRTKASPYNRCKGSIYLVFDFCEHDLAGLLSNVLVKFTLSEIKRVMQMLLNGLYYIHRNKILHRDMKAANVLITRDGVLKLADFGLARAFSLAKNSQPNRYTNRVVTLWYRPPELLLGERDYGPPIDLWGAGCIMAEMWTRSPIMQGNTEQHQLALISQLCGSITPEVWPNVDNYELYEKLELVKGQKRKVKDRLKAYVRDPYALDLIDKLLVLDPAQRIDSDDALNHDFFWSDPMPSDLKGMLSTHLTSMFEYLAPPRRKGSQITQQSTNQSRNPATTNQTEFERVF
CDK9/cyclin T, sequence (O60563 whole entry partner): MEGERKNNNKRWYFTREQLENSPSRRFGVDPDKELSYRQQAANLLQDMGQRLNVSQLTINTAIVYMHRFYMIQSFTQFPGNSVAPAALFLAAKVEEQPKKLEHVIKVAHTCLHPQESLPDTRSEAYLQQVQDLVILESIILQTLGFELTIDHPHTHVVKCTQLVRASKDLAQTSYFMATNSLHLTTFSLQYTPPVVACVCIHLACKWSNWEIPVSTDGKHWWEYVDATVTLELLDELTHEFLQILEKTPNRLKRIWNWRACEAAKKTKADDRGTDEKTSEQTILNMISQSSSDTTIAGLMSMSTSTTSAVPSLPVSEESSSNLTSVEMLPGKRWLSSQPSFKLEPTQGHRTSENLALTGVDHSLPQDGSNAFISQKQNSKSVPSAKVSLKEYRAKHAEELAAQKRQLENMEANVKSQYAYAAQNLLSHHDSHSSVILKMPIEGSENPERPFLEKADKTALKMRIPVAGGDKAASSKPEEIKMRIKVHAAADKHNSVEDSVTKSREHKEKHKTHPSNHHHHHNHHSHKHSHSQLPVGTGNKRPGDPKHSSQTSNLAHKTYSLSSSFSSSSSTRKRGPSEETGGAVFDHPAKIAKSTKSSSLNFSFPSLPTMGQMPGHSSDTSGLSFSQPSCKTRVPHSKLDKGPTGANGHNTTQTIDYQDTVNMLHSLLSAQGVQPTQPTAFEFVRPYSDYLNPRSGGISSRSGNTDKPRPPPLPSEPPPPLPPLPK
Experimental: (§2) The KinaseProfile radiometric protein kinase assay was used to evaluate the inhibitory activity of the compounds against CDK2/cyclin E, CDK4/cyclin D, CDK6/cyclin D, CDK7/cyclin H and CDK9/cyclin T.
(§3) The compounds were prepared in 100% DMSO at a final 50× stock concentration. The working stock solution was added as the first component to the assay wells. CDK2/cyclin E, CDK4/cyclin D, CDK6/cyclin D, CDK7/cyclin H, and CDK9/cyclin T were added in their respective kinase buffers: (CDK4: 8 mM MOPS pH 7.0, 0.2 mM EDTA, 0.03% BSA, 0.03% Tween 20, 20 mM DTT, and 0.2 mg/ml Rb fragment, 10 mM Magnesium acetate; CDK2, CDK6: 8 mM MOPS pH 7.0, 0.2 mM EDTA, 0.1 mg/mL histone H1, 10 mM Magnesium acetate; CDK7: 8 mM MOPS pH 7.0, 0.2 mM EDTA, 500 μM peptide, 10 mM Magnesium acetate; CDK9: 8 mM MOPS pH 7.0, 0.2 mM EDTA, 100 μM […], 10 mM Magnesium acetate) and [γ-^33 P-ATP] was included in the reaction mixture. The reaction was initiated by the addition of the Mg/ATP mixture and incubated at room temperature for 40 minutes. The reaction was terminated by the addition of 0.5% phosphoric acid. Then, 10 μL of the reaction mixture was spotted onto P30 filter pads, washed four times (1 minute each) with 0.425% phosphoric acid, followed by a single wash with methanol. The pads were then dried and counted. The data were recorded, inhibition rates were calculated, and IC50 values were determined accordingly. Table 2 summarizes the in vitro enzymatic inhibitory activity of the compounds of the present application.

[5] = system: Human colorectal cancer COLO205 cells; assay: Cell apoptosis assay (Caspase-Glo 3/7), 5-FU-induced apoptosis; assay type: cell-based
Experimental: The Caspase-Glo® 3/7 assay was employed to evaluate the protective effect of the compounds of the present invention against 5-fluorouracil (5-FU)-induced apoptosis. Human colorectal cancer COLO205 cells were cultured in RPMI 1640 medium (Invitrogen) in an incubator at 37° C. with 5% CO2.
COLO205 cells were seeded in 96-well plates at a density of 4,000 cells per well and incubated overnight. On the following day, serially diluted concentrations of Compound 1 were added to the wells and incubated for 16 hours. Afterward, 5-FU was added and the cells were incubated for an additional 48 hours. Subsequently, Caspase-Glo® 3/7 reagent (100 μL) was added to each well. The cells were mixed on an orbital shaker for 10 min and incubated at room temperature for 2 h. After an additional 10-minute incubation, the plate was measured using the Envision instrument and the data was processed. Relief rate (%)=(5-FU group−CDK group)/5-FU group×100%.

[6] = target: CDK6/cyclin D (Homo sapiens, UniProt Q00534); assay: KinaseProfile radiometric protein kinase assay, CDK6/cyclin D; assay type: biochemical
CDK6/cyclin D, sequence (Q00534 whole entry): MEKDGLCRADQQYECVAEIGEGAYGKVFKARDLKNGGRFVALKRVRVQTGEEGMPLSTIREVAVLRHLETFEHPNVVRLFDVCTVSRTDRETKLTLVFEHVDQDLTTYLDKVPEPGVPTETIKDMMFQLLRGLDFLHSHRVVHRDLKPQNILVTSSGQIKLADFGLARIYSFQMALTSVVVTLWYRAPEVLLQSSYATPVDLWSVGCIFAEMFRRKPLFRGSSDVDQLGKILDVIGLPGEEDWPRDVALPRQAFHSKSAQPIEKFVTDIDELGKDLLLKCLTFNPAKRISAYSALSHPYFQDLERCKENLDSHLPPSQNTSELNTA
CDK6/cyclin D, sequence (P30281 whole entry partner): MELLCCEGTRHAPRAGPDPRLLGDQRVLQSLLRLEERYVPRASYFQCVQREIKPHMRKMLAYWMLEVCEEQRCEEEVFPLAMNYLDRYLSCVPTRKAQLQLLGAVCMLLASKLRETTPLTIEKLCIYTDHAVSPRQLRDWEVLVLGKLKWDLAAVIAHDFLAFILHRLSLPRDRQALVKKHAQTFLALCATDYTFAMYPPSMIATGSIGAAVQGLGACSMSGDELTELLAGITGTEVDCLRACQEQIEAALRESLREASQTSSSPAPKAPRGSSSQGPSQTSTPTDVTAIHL
Experimental: as §2, §3

[7] = 25 mg/kg oral, 6 hours before and 6 hours after 5-FU
[8] = 50 mg/kg oral, 4 hours before and 8 hours after irinotecan
[9] = 25 mg/kg oral, 6 hours before and 6 hours after irinotecan
[10] = 50 mg/kg oral, 8 hours before irinotecan and 4 hours after irinotecan
[11] = 50 mg/kg oral, 8 hours before 5-FU and 4 hours after 5-FU
[12] = 5 mg/kg oral, 4 hours before and 8 hours after irinotecan

Row | SMILES | diarrhea relief rate [1, 7] [%] | IC50 ([2]; read-out: Absolute IC 50) [nM] | IC50 ([2]; read-out: Relative IC 50) [nM] | diarrhea relief rate [3, 8] [%] | IC50 [4] [nM] | Relief rate of 5-FU -induced cell apoptosis ([5]; concentration 10 μM) [%] | Relief rate of 5-FU -induced cell apoptosis ([5]; concentration 25 μM) [%] | Relief rate of 5-FU -induced cell apoptosis ([5]; concentration 50 μM) [%] | Relief rate of 5-FU -induced cell apoptosis ([5]; concentration 100 μM) [%] | IC50 [6] [nM] | diarrhea relief rate [3, 9] [%] | diarrhea relief rate [3, 10] [%] | Relief rate of 5-FU -induced cell apoptosis ([5]; concentration 1 μM) [%] | Relief rate of 5-FU -induced cell apoptosis ([5]; concentration 5 μM) [%] | diarrhea relief rate [1, 11] [%] | diarrhea relief rate [3, 12] [%] | other results
1 | CC(=O)c1c(C)c2cnc(Nc3ccc(N4CCN(S(=O)(=O)NCCCN)CC4)cn3)nc2n(C2CCCC2)c1=O [Compound 4] | 80 | < 1000 | < 1000 | 60 | > 3000 | 40 | 50 | 50 | 30 | < 50 |  |  |  |  |  |  | diarrhea relief rate ([1]; 10 mg/kg oral, 8 hours before 5-FU and 4 hours after 5-FU): 25%; diarrhea relief rate ([1]; 50 mg/kg oral, 12 hours before 5-FU): 70%; diarrhea relief rate ([1]; 10 0 mg/kg oral, 8 hours before 5-FU and 4 hours after 5-FU): 25%; diarrhea relief rate ([3]; 25 mg/kg oral, 2 hours before and 10 hours after irinotecan): 30%; diarrhea relief rate ([3]; 50 mg/kg oral, 6 hours before and 6 hours after irinotecan): 60%; diarrhea relief rate ([3]; 150 mg/kg oral, 10 hours before irinotecan): 45%
2 | CC(=O)c1c(C)c2cnc(Nc3ccc(N4CCN(S(=O)(=O)NCC(C)(C)N)CC4)cn3)nc2n(C2CCCC2)c1=O [Compound 2] |  | < 500 | < 1000 |  | > 1000 | 70 |  | 40 |  | < 50 | 60 | 75 | 40 | 50 |  |  | diarrhea relief rate ([1]; 25 mg/kg oral, 8 hours before 5-FU and 4 hours after 5-FU): 60%; diarrhea relief rate ([1]; 25 mg/kg oral, 12 hours before and 12 hours after 5-FU): 40%; diarrhea relief rate ([1]; 50 mg/kg oral, 6 hours before and 6 hours after 5-FU): 60%; diarrhea relief rate ([1]; 100 mg/kg oral, 24 hours before 5-FU and 0 hours after 5-FU): 40%; diarrhea relief rate ([3]; 25 mg/kg oral, 4 hours before and 8 hours after irinotecan): 70%; diarrhea relief rate ([3]; 100 mg/kg oral, 12 hours before irinotecan): 50%
3 | CC(=O)c1c(C)c2c(n(C3CCCC3)c1=O)=NC(Nc1ccc(N3CCN(S(=O)(=O)NCCN)CC3)cn1)NC=2 (centres unmarked) [Compound 1] |  | < 1000 | < 1000 | 37.5 | > 1000 |  | 40 |  |  | < 50 | 50 |  | 60 | 80 | 60 | 30 | diarrhea relief rate ([1]; 5 mg/kg oral, 8 hours before 5-FU and 4 hours after 5-FU): 50%; diarrhea relief rate ([1]; 10 mg/kg oral, 6 hours before and 6 hours after 5-FU): 40%; diarrhea relief rate ([1]; 25 mg/kg oral, 12 hours before 5-FU): 85%; diarrhea relief rate ([1]; 75 mg/kg oral, 6 hours before and 6 hours after 5-FU): 50%; diarrhea relief rate ([1]; 100 mg/kg oral, 8 hours before 5-FU and 4 hours after 5-FU): 75%; diarrhea relief rate ([3]; 10 mg/kg oral, 6 hours before and 6 hours after irinotecan): 33.3%; diarrhea relief rate ([3]; 100 mg/kg oral, 4 hours before and 8 hours after irinotecan): 30%; diarrhea relief rate ([3]; 100 mg/kg oral, 6 hours before and 6 hours after irinotecan): 20%; Relief rate of 5-FU -induced cell apoptosis ([5]; concentration 0.1 μM): 30%
4 | CC(=O)c1c(C)c2cnc(Nc3ccc(N4CCN(S(=O)(=O)NCC(C)CN)CC4)cn3)nc2n(C2CCCC2)c1=O (centres unmarked) [Compound 5] | 40 | < 10000 | < 10000 |  | > 3000 |  |  | 40 | 30 | < 50 | 50 | 50 |  | 50 | 30 | 25 | diarrhea relief rate ([1]; 10 mg/kg oral, 12 hours before 5-FU and 0 hours after 5-FU): 25%; diarrhea relief rate ([1]; 100 mg/kg oral, 4 hours before 5-FU and 8 hours after 5-FU): 40%; diarrhea relief rate ([3]; 100 mg/kg oral, 10 hours before irinotecan and 2 hours after irinotecan): 35%; Relief rate of 5-FU -induced cell apoptosis ([5]; concentration 0.5 μM): 10%
